From US9233167B2, “Oligomer-opioid agonist conjugates” (NEKTAR THERAPEUTICS, priority 2007, dated 2016)

Key:
[1] = target: recombinant human kappa opioid receptor (Homo sapiens (Human), UniProt P41145); type: binding
Experimental: (§1) Using conventional receptor binding assay techniques, several molecules were assayed to determine binding activity at kappa, mu and delta opioid subtypes of opioid receptors.
(§2) Cells were plated in 24 well plates at a density of 0.2-0.3*10^6 cells/well and washed with assay buffer containing 50 mM Tris.HCl and 5 mM MgCl2 (pH 7.4). Competition binding assays were conducted in whole cells incubated with increasing concentrations of test compounds in the presence of appropriate concentration of radioligand. 0.5 nM ^3H Naloxone, 0.5 nM ^3H Diprenorphine and 0.5 nM ^3H DPDPE were used as the competing radioligands for mu, kappa and delta receptors respectively. Incubations were carried out for two hours at room temperature using triplicate wells at each concentration. At the end of the incubation, cells were washed with 50 mM Tris HCl (pH 8.0), solubilized with NaOH and bound radioactivity was measured using a scintillation counter.
(§3) Specific binding is determined by subtraction of the cpm bound in the presence of 50-100× excess of cold ligand. Binding data assays were analyzed using GraphPad Prism 4.0 and IC50 is generated by non-linear regression from dose-response curves.

[2] = target: recombinant human mu opioid receptor (Homo sapiens (Human), UniProt P35372); type: binding
Experimental: as §1, §2, §3

[3] = target: T1, recombinant human delta opioid receptor (Homo sapiens (Human), UniProt P41143); conditions: Ki relative to nalbuphine
T1 sequence (P41143 whole entry, looked up): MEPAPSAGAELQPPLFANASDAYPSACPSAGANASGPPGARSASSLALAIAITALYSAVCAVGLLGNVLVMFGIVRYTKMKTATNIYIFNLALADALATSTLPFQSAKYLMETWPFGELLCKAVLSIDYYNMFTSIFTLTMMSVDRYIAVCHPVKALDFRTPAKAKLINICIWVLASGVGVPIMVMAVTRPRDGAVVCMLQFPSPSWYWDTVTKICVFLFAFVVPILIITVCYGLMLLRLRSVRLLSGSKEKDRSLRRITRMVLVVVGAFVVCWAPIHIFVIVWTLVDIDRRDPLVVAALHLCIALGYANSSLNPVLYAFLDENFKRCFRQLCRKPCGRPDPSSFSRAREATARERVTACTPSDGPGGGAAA
Experimental: as §1, §2, §3

[4] = target: T1, recombinant human delta opioid receptor; conditions: GTP-γS binding, up to 10 μM
Experimental: The reaction is initiated by 0.3 nM [^35S]GTPγS for an additional 30 minutes incubation period.

[5] = rats, 25 mg/kg intravenously, one hour after injection

COCCOCCOCCO[C@H]1CC[C@@]2(O)[C@H]3Cc4ccc(O)c5c4[C@@]2(CCN3CC2CCC2)[C@H]1O5 [6-O-mPEG3-Nalbuphine, 6-O-mPEG3-nalbuphine]
Fold vs Nalbuphine at KAPPA [1]: 8.40 | Fold vs Nalbuphine At MU [2]: 1.92 | Fold vs Nalbuphine At DELTA [3]: 0.51 | effect at the delta opioid receptor [4]: no effect | brain:plasma ratio [5]: 0.23
